Measured values as given in patent publication US11021526B2, “DSG2-derived peptides” (Asclepiumm Taiwan Co., Ltd, priority 2016, dated 2021).
Entries after “also recorded” stand apart in the source; their conditions may differ. Where a SMILES comes first, the peptide text is derived from it.

Legend:
MDCK cells = assay: EMT assay (HGF-induced EMT, inter-nuclear distance); details: HGF 2.5 ng/ml
Description: MDCK cells (800 cells/well) were seeded onto 96-well plate and incubated in 37° C. and 5% CO2 to become 10% sub-confluence. Then EMT was triggered by adding culture medium with cell scattering factor HGF (R&D system, 2.5 ng/ml) and tested peptides were added (SEQ2˜SEQ31) to block EMT. To measure the inter-nuclear distance, random images were captured at ×50 magnification using an upright microscope. The inter-nuclear distance was measured from the center of one nucleus to that of a neighboring/adjacent nucleus. The distance between the two nuclei was measured by using ImageJ software.

[1] = system: human umbilical vein endothelial cells (HUVEC); assay: HUVEC tube formation assay (angiogenesis assay); assay type: cell-based; details: for collapse of volume of tube structure compared to PBS-treated control: matrigel induced vasculature of HUVEC cells, PBS-dissolved peptides; for inhibition of angiogenesis / HUVEC tube structure: HUVEC on Matrigel, five-hour incubation
From the text: Overnight starved human umbilical vein endothelial cells (HUVEC) were collected and adjusted to 1.5×10^4 cells/well (in a 96-well plate) with endothelial cell growth medium and then seeded cells on the matrigel-coated well. Different peptides and their modified forms by D-form non-nature amino acids and/or cyclization by adding N- and C-terminal Cystines; also SEQ132 is a reversal of the direction of the peptide backbone SEQ6 (retro modification): (SEQ17, SEQ78, SEQ97, MR9 DF, CMR9C, CMR9C DF, MR9D6 DF, CMR9D6C DF and SEQ132) or control PBS were added into well for five-hour incubation at 37° C. Each well was photographed at ×40 magnification through an upright microscope. Total tube lengths were quantified by using ImageJ software.

[2] = system: rat eyes choroidal neovascularization; assay: Rat laser-induced choroidal neovascularization model; assay type: in vivo; details: injected into vitreous body, 14 days after laser; Eylea 200 μg/5 μl, SEQ97 500 μg/5 μl; n=10
Description: The animals were fully anesthetized with a mixture of ketamine hydrochloride/xylazine hydrochloride (7:1, v/v) by intramuscular injection into the thigh muscle at 1 mL/kg. Mydrin®-P ophthalmic solution (Santen Pharmaceutical Co., Ltd.) was instilled into the eyes to dilate the pupils. Laser (wavelength: 532 nm) was used to irradiate the right eye of each animal using a Slit Lamp SL-130 (Carl Zeiss Meditec AG) and a Multicolor Laser Photocoagulator MC-300 (NIDEK Co., Ltd.). Then the peptide dosing formulation was injected into the vitreous body of the right eye using a microsyringe (MS-N10, Ito Corporation) and a 33 G needle (Ito Corporation). Fourteen days after laser irradiation, a 4% FITC-dextran solution was administered into the tail vein in a volume of 1 mL/animal. Then the animals were euthanized by overdose of an anesthetic. The eyeballs were removed and fixed in 4% paraformaldehyde-phosphate buffer for 12-24 hours. Choroidal flat mounts were prepared under a stereoscopic microscope (EZ-4, Leica Microsystems). […]
Eyes of rats were irradiated by 532 nm wave length laser and intraveally treated with peptides (SEQ97), Eylea or PBS. […] After treatment (PBS, Eylea or SEQ97) for 14 days, the photographs of the choroidal neovascularization sites were taken and quantified with ImageJ software. […]

Molecule | inhibition of HGF (hepatocyte growth factor) induced EMT (epithelial-mesenchymal transition) (MDCK cells) | inhibition of angiogenesis / HUVEC tube structure [1] | also measured
CC[C@H](C)[C@H](NC(=O)[C@H](CCCCN)NC(=O)[C@H](Cc1c[nH]c2ccccc12)NC(=O)[C@H](CCCCN)NC(=O)[C@H](CCC(=O)O)NC(=O)[C@H](C)NC(=O)[C@@H](N)CCSC)C(=O)N[C@@H](C)C(=O)N[C@@H](CCCNC(=N)N)C(=O)N[C@@H](CCC(N)=O)C(=O)N[C@@H](CCC(=O)O)C(=O)O [SEQ15, MAEKWKIARQE] (H-MAEKWKIARQE-OH; N-terminus and C-terminus assumed) | excellent inhibiting abilities similar to SEQ6 |  | 
CMAEKWKIARDDDDDDC [CMR9D6C DF] |  |  | collapse of volume of tube structure compared to PBS-treated control [1]: 95%
CC[C@H](C)[C@H](NC(=O)[C@@H](NC(=O)[C@H](CO)NC(=O)[C@H](Cc1ccccc1)NC(=O)[C@@H](N)CO)C(C)C)C(=O)N[C@@H](CC(=O)O)C(=O)N[C@@H](CCCCN)C(=O)N1CCC[C@H]1C(=O)N1CCC[C@H]1C(=O)NCC(=O)N[C@@H](CCSC)C(=O)N[C@@H](C)C(=O)N[C@@H](CCC(=O)O)C(=O)N[C@@H](CCCCN)C(=O)N[C@@H](Cc1c[nH]c2ccccc12)C(=O)O [SEQ5, SFSVIDKPPGMAEKW] (H-SFSVIDKPPGMAEKW-OH; N-terminus and C-terminus assumed) | inhibited |  | 
MAEKWKIARDDDDDD [MR9D6 DF] |  |  | collapse of volume of tube structure compared to PBS-treated control [1]: 95%
CC[C@H](C)[C@H](NC(=O)[C@H](CCCCN)NC(=O)[C@H](Cc1c[nH]c2ccccc12)NC(=O)[C@H](CCCCN)NC(=O)[C@H](CCC(=O)O)NC(=O)[C@H](C)NC(=O)[C@@H](N)CCSC)C(=O)N[C@@H](C)C(=O)N[C@@H](CCCNC(=N)N)C(=O)O [SEQ17, MAEKWKIAR] (H-MAEKWKIAR-OH; N-terminus and C-terminus assumed) | advantageous effect in the inhibition of EMT; also recorded: excellent inhibiting abilities similar to SEQ6 |  | 
Eylea: Eylea, comparator treatment (200 μg/5 μl) in the rat choroidal neovascularization model [reference compound] |  |  | inhibition of rat eyes choroidal neovascularization [2]: significantly inhibit
RRRRRRRMAEKWKIAR [SEQ78] |  | inhibit angiogenesis | 
VSTSEQRAIKWKEAM [SEQ132] |  | strong efficacy to inhibit HUVEC tube structure | 
MAEKWKIARDDDDDD [SEQ97] |  | inhibit angiogenesis | inhibition of rat eyes choroidal neovascularization [2]: significantly inhibit
CC[C@H](C)[C@H](NC(=O)[C@H](CC(C)C)NC(=O)[C@H](Cc1ccccc1)NC(=O)[C@H](CCC(N)=O)NC(=O)[C@@H](NC(=O)[C@H](CCC(=O)O)NC(=O)[C@H](CO)NC(=O)[C@H](CCCNC(=N)N)NC(=O)CNC(=O)[C@H](CC(C)C)NC(=O)[C@H](CCCCN)NC(=O)[C@H](CCCCN)NC(=O)[C@@H](N)CCC(=O)O)[C@@H](C)CC)C(=O)N[C@@H](CO)C(=O)N[C@@H](CC(=O)O)C(=O)O [SEQ8, EKKLGRSEIQFLISD] (H-EKKLGRSEIQFLISD-OH; N-terminus and C-terminus assumed) | inhibited |  | 
